Data from a compilation of properties of binary mixtures (doi:10.1021/acs.jpcb.0c03296).

Assay: xn = mol fraction of the nth substance listed
Details: 100 kPa

C[N+](C)(C)CCO.O=S(=O)([N-]S(=O)(=O)C(F)(F)F)C(F)(F)F + OCCO
Details | electrical conductivity, x1 = 0.14 [S/m] | electrical conductivity, x1 = 0.2 [S/m] | electrical conductivity, x1 = 0.333 [S/m] | viscosity, x1 = 0.14 [mPa·s] | viscosity, x1 = 0.2 [mPa·s] | viscosity, x1 = 0.333 [mPa·s]
298.1 K | 0.313 | 0.402 | 0.36 | 22.27 | 28.99 | 30.56
303 K | – | 0.494 | 0.442 | – | 23.44 | 24.82
308.1 K | 0.456 | 0.6 | 0.532 | 14.46 | 18.97 | 20.46
313 K | 0.54 | 0.715 | 0.635 | 12.12 | 15.74 | 17.15
318.1 K | 0.631 | 0.839 | 0.745 | 10.36 | 13.28 | 14.48
323 K | – | 0.975 | 0.866 | – | 11.32 | 12.28
328.1 K | 0.838 | 1.12 | 1 | 7.73 | 9.77 | 10.7
